Where two headings read alike, the source gives them in different places.
What was measured:
[1] = tested on: A. cantonensis L1 larvae; test: Anthelmintic activity against A. cantonensis first-stage larvae (motility/viability, 24 h); format: cell-based, Angiostrongylus cantonensis; settings: for EC50: 24 h, read-out: A. cantonensis EC50 (μM ± SEM) L1; for activity against the larvae (in words): A. cantonensis larvae in vitro
Procedure: (§1) Larvae were washed three times in RPMI 1640 medium supplemented with 100 U/mL penicillin and 100 μg/mL streptomycin. Approximately 50 larvae were allocated into individual wells of a 96-well plate containing 200 μL of final volume of RPMI medium. […] Approximately 50 larvae were transferred to each well of a 96-well plate containing RPMI medium. […] Larval viability was monitored at 0 and 24 h post-treatment. […] Assays were performed in triplicate and repeated three times.

[2] = in vitro; format: cell-based; settings: L4 larvae, up to 1000 μM, read-out: C. elegans LC50
Procedure: Synchronized fourth-stage (L4) C. elegans larvae were distributed into 96-well plates containing M9 buffer (60 larvae/well). […] After 24 h incubation at 21 °C, larval survival was determined by motility: larvae unresponsive to gentle mechanical stimulation were classified as nonviable. […] Assays were performed in triplicate and repeated three times.

[3] = Cytotoxicity in HaCat cells (MTT, 72 h); format: cell-based; settings: human, from 500 μM
Procedure: Cytotoxicity was assessed using the MTT assay. After 72 h, MTT solution was added, followed by 3 h of incubation. Absorbance was measured at 595 nm using an Epoch Microplate Spectrophotometer (BioTek Instruments, Winooski, VT, USA). Assays were performed in triplicate and repeated three times.

[4] = tested on: A. cantonensis L3 larvae; test: Anthelmintic activity against A. cantonensis infective third-stage larvae (motility/viability, 24 h); format: cell-based, Angiostrongylus cantonensis; settings: in vitro, 21 °C, read-out: A. cantonensis EC50 (μM ± SEM) L3
Procedure: as §1

[5] = Angiostrongylus cantonensis, first-stage larvae (L1), in vitro, 21 °C
[6] = first-stage larvae (L1), in vitro, 21 °C

Structure (SMILES): CCCSc1ccc2nc(NC(=O)OC)[nH]c2c1 [albendazole, reference compound]
- EC50 ([1]; Angiostrongylus cantonensis): 14.2 ± 1.1 µM
- LC50 at 24 h [2]: 14.8 ± 1.5 µM
- CC50 at 72 h [3]: > 500 µM

Structure (SMILES): C(=C\c1ccccc1)/CN1CCN(C(c2ccccc2)c2ccccc2)CC1 [compound 1, cinnarizine, reference compound]
- LC50 at 24 h [2]: > 1000 µM

Structure (SMILES): C(=C\c1ccccc1)/CN1CCN(Cc2ccccc2)CC1 [compound 1a, 1-Benzyl-4-[(E)-cinnamyl]piperazine]
- activity against the larvae (in words) [1]: no appreciable activity
- EC50 [1, 5]: > 100 µM
- LC50 at 24 h [2]: > 1000 µM
- CC50 at 72 h ([3]; HaCat cells): > 500 µM

Structure (SMILES): COc1ccc(/C=C/CN2CCN(C(c3ccccc3)c3ccccc3)CC2)cc1 [compound 1b, 1-Benzhydryl-4-[(E)-3-(4-methoxyphenyl)allyl]piperazine]
- EC50 [1, 5]: 8.2 to 9.3 µM
- EC50 [1, 6]: 8.2 ± 1.2 µM
- EC50 ([4]; Angiostrongylus cantonensis): 8.2 to 9.3 µM
- EC50 [4]: 8.7 ± 0.9 µM
- LC50 at 24 h [2]: > 1000 µM
- CC50 at 72 h ([3]; HaCat cells): > 500 µM

Structure (SMILES): Clc1ccc(C(c2ccccc2)N2CCN(C/C=C/c3ccccc3)CC2)cc1 (stereo not shown) [compound 2, 1-[(4-Chlorophenyl)-phenyl-methyl]-4-[(E)-cinnamyl]piperazine, reference compound]
- EC50 [1, 5]: 4.2 ± 1.1 µM
- EC50 ([4]; Angiostrongylus cantonensis): 8.6 ± 1.1 µM
- LC50 at 24 h [2]: > 1000 µM
- CC50 at 72 h ([3]; HaCat cells): > 500 µM

Structure (SMILES): Clc1ccc(CN2CCN(C/C=C/c3ccccc3)CC2)cc1 [compound 2a, 1-[(4-Chlorophenyl)methyl]-4-[(E)-cinnamyl]piperazine]
- activity against the larvae (in words) [1]: no appreciable activity
- EC50 [1, 5]: > 100 µM
- LC50 at 24 h [2]: > 1000 µM
- CC50 at 72 h ([3]; HaCat cells): > 500 µM

Structure (SMILES): COc1ccc(/C=C/CN2CCN(C(c3ccccc3)c3ccc(Cl)cc3)CC2)cc1 (stereo not shown) [compound 2b, 1-[(4-Chlorophenyl)-phenyl-methyl]-4-[(E)-3-(4-methoxyphenyl)allyl]piperazine]
- EC50 [1, 5]: 8.2 to 9.3 µM
- EC50 [1, 6]: 9.3 ± 0.9 µM
- EC50 ([4]; Angiostrongylus cantonensis): 8.2 to 9.3 µM
- EC50 [4]: 8.8 ± 1.2 µM
- LC50 at 24 h [2]: > 1000 µM
- CC50 at 72 h ([3]; HaCat cells): > 500 µM

Structure (SMILES): O=C(/C=C/c1ccccc1)N1CCN(C(c2ccccc2)c2ccccc2)CC1 [compound 3, (E)-1-(4-Benzhydrylpiperazin-1-yl)-3-phenyl-prop-2-en-1-one]
- activity against the larvae (in words) [1]: no activity
- EC50 [1, 5]: > 100 µM
- LC50 at 24 h [2]: > 1000 µM
- CC50 at 72 h ([3]; HaCat cells): > 500 µM

Structure (SMILES): O=C(/C=C/c1ccccc1)N1CCN(Cc2ccccc2)CC1 [compound 3a, (E)-1-(4-Benzylpiperazin-1-yl)-3-phenyl-prop-2-en-1-one]
- EC50 [1, 5]: 8.2 µM
- EC50 [1, 6]: 8.7 ± 1.1 µM
- EC50 ([4]; Angiostrongylus cantonensis): 18.1 ± 1.5 µM
- LC50 at 24 h [2]: > 1000 µM
- CC50 at 72 h ([3]; HaCat cells): > 500 µM

Structure (SMILES): COc1ccc(/C=C/C(=O)N2CCN(C(c3ccccc3)c3ccccc3)CC2)cc1 [compound 3b, (E)-1-(4-Benzhydrylpiperazin-1-yl)-3-(4-methoxyphenyl)prop-2-en-1-one]
- EC50 [1, 5]: > 100 µM
- LC50 at 24 h [2]: > 1000 µM
- CC50 at 72 h ([3]; HaCat cells): > 500 µM

Structure (SMILES): O=C(/C=C/c1ccc(O)cc1)N1CCN(C(c2ccccc2)c2ccccc2)CC1 [compound 3c, (E)-1-(4-Benzhydrylpiperazin-1-yl)-3-(4-hydroxyphenyl)prop-2-en-1-one]
- EC50 [1, 5]: > 100 µM
- LC50 at 24 h [2]: > 1000 µM
- CC50 at 72 h ([3]; HaCat cells): > 500 µM

Structure (SMILES): COc1cc(/C=C/C(=O)N2CCN(C(c3ccccc3)c3ccccc3)CC2)ccc1O [compound 3d, (E)-1-(4-Benzhydrylpiperazin-1-yl)-3-(4-hydroxy-3-methoxy-phenyl)prop-2-en-1-one]
- EC50 [1, 5]: > 100 µM
- LC50 at 24 h [2]: > 1000 µM
- CC50 at 72 h ([3]; HaCat cells): > 500 µM

Structure (SMILES): O=C(/C=C/c1ccc(O)c(O)c1)N1CCN(C(c2ccccc2)c2ccccc2)CC1 [compound 3e, (E)-1-(4-Benzhydrylpiperazin-1-yl)-3-(3,4-dihydroxyphenyl)prop-2-en-1-one]
- EC50 [1, 5]: > 100 µM
- LC50 at 24 h [2]: > 1000 µM
- CC50 at 72 h ([3]; HaCat cells): > 500 µM

— paper PMC12519461 (ACS Infectious Diseases, 2025)
